The test system of test [1] is H1299 tumor bearing nude mice. The experiment in a line: In vivo therapy study with X-ray irradiation. The conditions noted are these: 260.8 nmol/kg i.v. + 6 Gy after 4 h; RT only 1826.4. The procedure:
All animal experiments were performed according to protocols approved by the Institutional Animal Care and Use Committee (IACUC). Female athymic nude mice (Charles River Laboratories, USA) at 6 weeks old were housed in a protected unit specified for immunodeficient animals. To establish tumor models, H1299 cells (2×10^5 cells) were suspend in a matrigel solution and were subcutaneously injected into mice using a 28-gauge needle. All mice were randomized into six groups (n=5). When the average tumor volume reached 150 mm3, 200 μL free drug (DM1, DM1-NO) or drug loaded NPs (DM1-NPs, DM1-NO-NPs) in PBS at a dose of 260.8 nmol/kg were injected intravenously into the mice. Mice treated with 200 μL PBS were studied as a control. All the other mice received X-ray irradiation (6 Gy, 320 kV) to tumors 4 h after drug/nanoparticle injection, with the rest of the body shielded by lead. Tumor size and body weight were inspected every 3 days using a digital caliper, and the tumor volume was estimated as (length)×(width)2/2. After 24 days, the mice were euthanized, and the tumor was excised and dissected into slices for hematoxylin and eosin (H&E) staining.
In vivo therapy studies were performed with H1299 tumor bearing nude mice. When tumor size reached 150 mm3, DM1-NO-NPs (260.8 nmol/kg, equivalent to 0.2 mg DM1/kg) was intravenously (i.v.) injected into the animals (n=5). […]

The subject of test [2] is H1299 cells. As to the kind of experiment: MTT cell viability assay, 72 h, in the presence of RT. Type of test: cell-based, human. The conditions noted are these: Homo sapiens, NCI-H1299, with RT. The procedure: FIGS. 7A-7E are plots showing the results of a cell cycle analysis, based on PI staining and assessed by flow cytometry. H1299 cells were incubated with PBS (7A), DM1 (7B), DM1-NO (7C), DM1-NPs (7D), or DM1-NO-NPs (20 nM, DM1 concentration) (7E) before analysis. […] FIG. 7G is a bar graphs showing Percentage of tubulin inhibition. Tubulin polymer was collected by centrifugation (35000×g for 1 h at 30° C.) and the amount of tubulin protein sediment was quantified by measuring protein concentration. ***, P<0.001. FIG. 7H is a line graph showing cell viability, tested with H1299 cells using 72-h MTT in the presence of RT. DM1, DM1-NO, and DM1-NO-NPs were studied.
The viability of the H1299 cells after different treatments was measured by (4,5-dimethythiazon-2-yl)-2,5-diphenyl tetrazolium bromide (MTT) assay using an Infinite M200 microplate reader (BioTek's Synergy™ Mx, USA). Around 3×10^3 cells per well were seeded into a 96-well plate and cultured overnight until the cells fully adhered to the bottom of the plate. The cells were treated with different treatment groups, including free drugs (DM1 and DM1-NO), and drug loaded nanoparticles (DM1-NPs and DM1-NO-NPs) for 72 h. […] The plate was gently shake for 5 min (instrument setup) to dissolve the formazan crystals, and the absorbance at 570 nm was recorded by a microplate reader. […]
A general note: Formazan colour is commonly taken as a measure of viable cells.

For test [3], the system named is H1299 cells. The experiment in a line: MTT cell viability assay, 72 h, without RT. The conditions noted are these: Homo sapiens, NCI-H1299. Type of test: cell-based, human. On the procedure:
The viability of the H1299 cells after different treatments was measured by (4,5-dimethythiazon-2-yl)-2,5-diphenyl tetrazolium bromide (MTT) assay using an Infinite M200 microplate reader (BioTek's Synergy™ Mx, USA). Around 3×10^3 cells per well were seeded into a 96-well plate and cultured overnight until the cells fully adhered to the bottom of the plate. The cells were treated with different treatment groups, including free drugs (DM1 and DM1-NO), and drug loaded nanoparticles (DM1-NPs and DM1-NO-NPs) for 72 h. […] After that MTT reagent (in 20 μL PBS, 5 mg/mL) was added to each well. The cells were further incubated for 4 h at 37° C. The medium in each well was then removed and replaced by 100 μL DMSO. The plate was gently shake for 5 min (instrument setup) to dissolve the formazan crystals, and the absorbance at 570 nm was recorded by a microplate reader. Each experiment condition was run three times and the data were shown as the mean value plus a standard deviation (±SD).

pIC50: −log10 of the molar value.

Usually pIC50 stands for the negative decadic logarithm of the IC50, by convention in mol/L.

As to `COc1cc2cc(c1Cl)N(C)C(=O)C[C@@H](OC(=O)[C@H](C)N(C)C(=O)CCSN=O)[C@]1(C)OC1[C@H](C)[C@@H]1C[C@@](O)(NC(=O)O1)[C@H](OC)/C=C\C=C(/C)C2` (stereo partly drawn) [DM1-NO], in test [1], the “average tumor size (volume) on Day 24” value was determined as 759.33 mm3. Also, the figures for the negative logarithm of the IC50 (pIC50) with H1299 cells [2] and in the test on H1299 cells [3] were 7.83 and 7.59, respectively.

The values are drawn from patent US12570704B2, “Functionally modified maytansinoids and compositions and methods of use thereof” (University of Georgia Research Foundation, Inc., priority 2019, dated 2026).
